Values joined by “and” are separate entries in the source; they are usually repeats but may differ in a detail not shown here. Equal entries are not always repeated. Where two headings read alike, the source gives them in different places.
What was measured:
T84 cell line = test: Chelate permeability: fluorescence of cytoplasm and membrane fractions; format: cell-based, human; conditions: 1 mM chelate, 2 h, Table 4
Caco-2 cell line = test: as above; format: cell-based, human
[1] = tested on: PZ-HPV-7 normal cell line; test: as above; format: cell-based
[2] = tested on: HEK293 cells, normal (non-induced); test: Permeability of chelates to HEK293 cells, fluorescence of fractions; format: cell-based, human; conditions: HEK293 Normal; 1 mM chelate, 2 hours
Procedure: The human kidney transformed HEK293 cells (obtained from the ATCC) were grown in Eagle's Minimum Essential Medium (EMEM) supplemented with 10% (v/v) heat-inactivated fetal bovine serum, sodium pyruvate, nonessential amino acids and antibiotics in a humidified 5% CO2 atmosphere at 37° C. Medium and supplements were purchased from Gibco bRL (Grand Island, N.Y.). Etoposide was obtained from Sigma (St. Louis, Mo.) and prepared as 20 mM solution in dimethyl sulfoxide (DMSO). For treatments, etoposide was applied to the HEK293 cultures at 1:1000 dilution (final concentration of 20 μM) after cell became 75% confluent. As a control, cells were fed with medium containing 0.1% DMSO in the absence of etoposide. After treatment with etoposide, cells were incubated in a humidified 5% CO2 at 37° C. for 24 hours. HEK293 cells were collected by removing treatment medium and washed 2 times with 10 mM HEPES buffer. Final cell pellets were resuspended in a small amount of HEPES and stored at 4° C. for further study.
Cells were grown to confluence in T-150 flasks (about 2×10^6 cells). […] After treatment, the chelate or analogue supernatant was discarded and the cells were rinsed three times at room temperature with 10 mM HEPES. Cells were then removed from the flask by manual scraping. Cells were transferred to a 50-mL conical tube and centrifuged (400×g) for 5 minutes and the test material removed. Remaining cells were rinsed twice with cold 10 mM HEPES. Cells were used in cell binding assays.

C-33A cervical cells = conditions: read-out: Chelate Concentration Producing 50% Inhibition of Cancer Cell Growth, MTS, 96 hour continuous exposure
Procedure: (§1) To assess whether or not chelate treatment of cancer cells could produce a net modulation in cell growth, the overall growth inhibitory effect of chelates on various cancer cell lines was tested. The concentration of chelate necessary to produce 50% growth inhibition was measured, as determined by detection of the formazan product of cellular […] of 3-(4,5-dimethylthiazol-2-yl)-5-(3-carboxymethoxyphenyl)-2-(4-sulfophenyl)-2H-tetrazolium, inner salt (MTS).

[3] = tested on: CaCo-2 colorectal adenocarcinoma cells; conditions: read-out: Chelate Concentration Producing 50% Inhibition of Cancer Cell Growth, MTS, 96 hour continuous exposure
Procedure: as §1

[4] = tested on: Caki-1 renal cell carcinoma cells; conditions: read-out: Chelate Concentration Producing 50% Inhibition of Cancer Cell Growth, MTS, 96 hour continuous exposure
Procedure: as §1

[5] = tested on: DU-145 prostate adenocarcinoma cells
Procedure: as §1

[6] = tested on: HLaC head & neck squamous cell carcinoma cells; conditions: read-out: Chelate Concentration Producing 50% Inhibition of Cancer Cell Growth, MTS, 96 hour continuous exposure
Procedure: as §1

[7] = tested on: HT-29 colon adenocarcinoma cells; conditions: read-out: Chelate Concentration Producing 50% Inhibition of Cancer Cell Growth, MTS, 96 hour continuous exposure
Procedure: as §1

[8] = tested on: LnCaP prostate adenocarcinoma cells
Procedure: as §1

[9] = tested on: MDA-231 breast adenocarcinoma cells
Procedure: as §1

[10] = tested on: MDA-231-M breast adenocarcinoma cells, metastatic clone; conditions: read-out: Chelate Concentration Producing 50% Inhibition of Cancer Cell Growth, MTS, 96 hour continuous exposure
Procedure: as §1

[11] = tested on: NCM460 normal human colon epithelial cells; conditions: read-out: Chelate Concentration Producing 50% Inhibition of Cancer Cell Growth; NCM460 control line; MTS; 96 hour continuous exposure
Procedure: as §1

[12] = tested on: SK-MES lung non-small cell squamous carcinoma cells; conditions: read-out: Chelate Concentration Producing 50% Inhibition of Cancer Cell Growth, MTS, 96 hour continuous exposure
Procedure: as §1

[13] = tested on: cancer cells (LNCaP, Caco-2, T84); test: Chelate permeability and specificity, cancer cells versus normal cells (summary); format: cell-based, human; conditions: cancer cells
C33-A cells = conditions: for EuQCTME Cell Binding (fluorescence per well): 1 mM
DU145 cells = conditions: for EuQCTME Cell Binding (fluorescence per well): 1 mM
HLAC cells = conditions: for EuQCTME Cell Binding (fluorescence per well): 1 mM
Caco-2 cells = conditions: 1 mM, 1 h
Excerpt: Before images were captured, an aliquot of the HEPES binding buffer was mounted on a slide and observed for any background fluorescence.

[14] = PZ-HVP-7, 1 mM chelate, 2 h, Table 4

CCOP(=O)([O-])CN1CCN(Cc2ccc3cc(C)ccc3n2)CCN(CP(=O)([O-])OCC)CCN(CP(=O)([O-])OCC)CC1.[Eu+3] [Eu-QCTME, Eu(III) N-(6-methyl-2-quinolylmethyl)-N′,N″,N′″-tris(methylenephosphonic acid ethyl ester)-1,4,7,10-tetraazacyclododecane]
Fluorescence/mg Cytoplasm (T84 cell line): 4548 | Fluorescence/mg Membrane (T84 cell line): 2307 | fluorescence in the membrane fractions, dose response (Caco-2 cell line; 0-2000 μM, 2 hours): detectable quantity of fluorescence | fluorescence in the cytoplasm, dose response (Caco-2 cell line; 0-2000 μM, 2 hours, compared to PZ-HPV-7): significant increases in fluorescence | Fluorescence/mg Cytoplasm (Caco-2 cell line; 1 mM chelate, 2 h, Table 4): 4339 | Fluorescence/mg Membrane (Caco-2 cell line; 1 mM chelate, 2 h, Table 4): 2524 | detectability in normal cells ([1]; PZ-HPV-7): significantly less detectable | Fluorescence/mg Cytoplasm [1, 14]: 2247 | Fluorescence/mg Membrane [1, 14]: 2293 | Fluorescence/mg Membrane [2]: 1799 | IC50 (C-33A cervical cells): 41 µM | IC50 [3]: 134 µM | IC50 [4]: 16 µM | inhibitory activity, time course MTS ([5]; 500 μM, 24 hours): showed inhibitory activity | IC50 ([5]; read-out: Chelate Concentration Producing 50% Inhibition of Cancer Cell Growth, MTS, 96 hour continuous exposure): 54.4 µM | IC50 [6]: 21.9 µM | IC50 [7]: 15.8 µM | growth inhibition ([8]; LNCAP, 500 μM, 24 hours exposure): over 30% | IC50 ([8]; read-out: Chelate Concentration Producing 50% Inhibition of Cancer Cell Growth, LnCaP, MTS, 96 hour continuous exposure): 46.4 µM | inhibitory activity, time course MTS ([9]; MDA-231, 500 μM, 24 hours): showed inhibitory activity | growth inhibition ([9]; MDA-MB-231, 500 μM, 24 hours exposure): over 30% | IC50 ([9]; read-out: Chelate Concentration Producing 50% Inhibition of Cancer Cell Growth, MDA-231, MTS, 96 hour continuous exposure): 39.6 µM | IC50 [10]: 46.8 µM | IC50 [11]: 123 µM and 124 µM | IC50 [12]: 140 µM | permeability to cell membranes [13]: permeable to cancer cell membranes | EuQCTME Cell Binding (fluorescence per well) (C33-A cells; 2 min): 2,967 | EuQCTME Cell Binding (fluorescence per well) (C33-A cells; 5 min): 22,763 | EuQCTME Cell Binding (fluorescence per well) (C33-A cells; 15 min): 5,075 | EuQCTME Cell Binding (fluorescence per well) (C33-A cells; 30 min): 2,923 | EuQCTME Cell Binding (fluorescence per well) (C33-A cells; 45 min): 7,030 | EuQCTME Cell Binding (fluorescence per well) (C33-A cells; 60 min): 583 | EuQCTME Cell Binding (fluorescence per well) (C33-A cells; 120 min): 1,275 | EuQCTME Cell Binding (fluorescence per well) (C33-A cells; 180 min): 2,377 | EuQCTME Cell Binding (fluorescence per well) (C33-A cells; 240 min): 1,322 | Totals: Normalized total area under each curve (AUC) (C33-A cells; over 240 min): 9 | EuQCTME Cell Binding (fluorescence per well) (DU145 cells; 2 min): 27,884 | EuQCTME Cell Binding (fluorescence per well) (DU145 cells; 5 min): 10,040 | EuQCTME Cell Binding (fluorescence per well) (DU145 cells; 15 min): 747 | EuQCTME Cell Binding (fluorescence per well) (DU145 cells; 30 min): 19,868 | EuQCTME Cell Binding (fluorescence per well) (DU145 cells; 45 min): 10,987 | EuQCTME Cell Binding (fluorescence per well) (DU145 cells; 60 min): 3,235 | EuQCTME Cell Binding (fluorescence per well) (DU145 cells; 120 min): 15,644 | EuQCTME Cell Binding (fluorescence per well) (DU145 cells; 180 min): 9,038 | EuQCTME Cell Binding (fluorescence per well) (DU145 cells; 240 min): 2,506 | Totals: Normalized total area under each curve (AUC) (DU145 cells; over 240 min): 49 | EuQCTME Cell Binding (fluorescence per well) (HLAC cells; 2 min): 15,807 | EuQCTME Cell Binding (fluorescence per well) (HLAC cells; 5 min): 20,493 | EuQCTME Cell Binding (fluorescence per well) (HLAC cells; 15 min): 13,704 | EuQCTME Cell Binding (fluorescence per well) (HLAC cells; 30 min): 6,300 | EuQCTME Cell Binding (fluorescence per well) (HLAC cells; 45 min): 10,068 | EuQCTME Cell Binding (fluorescence per well) (HLAC cells; 60 min): 3,206 | EuQCTME Cell Binding (fluorescence per well) (HLAC cells; 120 min): 21,877 | EuQCTME Cell Binding (fluorescence per well) (HLAC cells; 180 min): 6,510 | EuQCTME Cell Binding (fluorescence per well) (HLAC cells; 240 min): 2,401 | Totals: Normalized total area under each curve (AUC) (HLAC cells; over 240 min): 51 | localization by confocal microscopy (Caco-2 cells): predominantly cytoplasmic localization

Reference: US20060210479A1 (Dow Global Technologies Inc., priority 2004, published 2006)
